In article PMC10489980, “Design of Potent and Salt-Insensitive Antimicrobial Branched Peptides” (Polymers, 2023):
Read-outs that look alike come from different tables or passages of the source. Positions of bridges follow the written chain, without caps; N, C: chain ends. Residues, ends and D or L forms follow the SMILES beside them. Chains are numbered I, II in the order given. *: point of attachment. Fmoc = O=C(OCC1c2ccccc2-c2ccccc21)*

What was measured:
Format in all cases: cell-based
[1] = system: Enterococcus faecalis ATCC 29212
From the text: (§1) Ten organisms obtained from the American Type Culture Collection (ATCC; Rockville, MD) were used for antimicrobial assays. Four Gram-negative bacteria included Escherichia coli ATCC 25922, Pseudomonas aeruginosa ATCC 27853, Klebsiella oxytoca ATCC 49131, and Proteus vulgaris ATCC 49132. The three Gram-positive bacteria were Staphylococcus aureus 29213, Micrococcus luteus ATCC 49,732, and Enterococcus faecalis ATCC 29212. The three fungi were Candida albicans ATCC 37092, Candida kefyr ATCC 37095, and Candida tropicalis ATCC 37097. The clinical isolates were obtained from Singapore General Hospital (SGH). They are Enterococcus faecium, Staphylococcus aureus, Klebsiella pneumoniae, Acinetobacter baumannii, Pseudomonas aeruginosa, and Enterobacter species. The strains were incubated in trypticase soy broth (TSB), which was prepared in double distilled water and autoclaved for sterilization. TSB was purchased from Becton-Dickinson (Cockeysville, MD, USA).
(§2) Antimicrobial Assays. A sensitive and reproducible two-stage radial diffusion antimicrobial assay of Lehrer et al. was employed. A 1–4 × 10^6 colony-forming unit/mL of the test organism was mixed with 10 mL of molten underlay gel solution and poured into Petri dishes to form a uniform layer. The gel solution consisted of 10 mM sodium phosphate buffer, 0.03% TSB, and 0.02% Tween-20, with the addition of 100 mM NaCl in the case of high-salt conditions. Upon gel solidification, gel wells were made by a 3-mm diameter template in an evenly spaced array. A 5 µL aliquot of a serial half-log dilution of test peptides at seven concentrations was added to each well after removal of gel plugs. The dishes were incubated at 37 °C for 3 h to allow peptide diffusion into the underlay gels. Gels were overlaid with 10 mL of 1% agarose in 6% TSB (wt/vol). After additional incubation at 37 °C for 16–24 h, the diameter of the clear zone surrounding the wells (colony-free) was measured under a microscope. Antimicrobial activities were expressed in units (0.1 mm = 1 unit), and the MICs (in µM) were determined from the x-intercepts of the dose-response curves. Experiments were performed in triplicates.

[2] = system: Klebsiella oxytoca ATCC 49131
From the text: as §1, §2

[3] = system: Escherichia coli ATCC 25922
From the text: as §1, §2

[4] = system: Candida albicans ATCC 37092
From the text: as §1, §2

[5] = system: Pseudomonas aeruginosa ATCC 27853
From the text: as §1, §2

Candida kefyr ATCC 37095 = system: Candida kefyr ATCC 37095
From the text: as §1, §2

[6] = system: Micrococcus luteus ATCC 49,732
From the text: as §1, §2

[7] = system: Staphylococcus aureus 29213
From the text: as §1, §2

[8] = system: Candida tropicalis ATCC 37097
From the text: as §1, §2

[9] = system: Proteus vulgaris ATCC 49132
From the text: as §1, §2

[10] = ATCC 29212, radial diffusion assay, high-salt (100 mM NaCl), triplicates
[11] = ATCC 29212, radial diffusion assay, low-salt (without NaCl), triplicates
[12] = ATCC 49131, radial diffusion assay, high-salt (100 mM NaCl), triplicates
[13] = ATCC 49131, radial diffusion assay, low-salt (without NaCl), triplicates
[14] = ATCC 25922, two-stage radial diffusion assay, high-salt (underlay gel 10 mM sodium phosphate, 0.03% TSB, 0.02% Tween-20, with 100 mM NaCl), 37 °C, x-intercept of dose-response curve, triplicates
[15] = ATCC 25922, two-stage radial diffusion assay, low-salt (underlay gel 10 mM sodium phosphate, 0.03% TSB, 0.02% Tween-20, without NaCl), 37 °C, x-intercept of dose-response curve, triplicates
[16] = ATCC 37092, radial diffusion assay, high-salt (100 mM NaCl), triplicates
[17] = ATCC 37092, radial diffusion assay, low-salt (without NaCl), triplicates
[18] = ATCC 27853, radial diffusion assay, high-salt (100 mM NaCl), triplicates
[19] = ATCC 27853, radial diffusion assay, low-salt (without NaCl), triplicates
[20] = ATCC 37095, radial diffusion assay, high-salt (100 mM NaCl), triplicates
[21] = ATCC 37095, radial diffusion assay, low-salt (without NaCl), triplicates
[22] = ATCC 49,732, radial diffusion assay, high-salt (100 mM NaCl), triplicates
[23] = ATCC 49,732, radial diffusion assay, low-salt (without NaCl), triplicates
[24] = strain 29213, radial diffusion assay, high-salt (100 mM NaCl), triplicates
[25] = strain 29213, radial diffusion assay, low-salt (without NaCl), triplicates
[26] = ATCC 37097, radial diffusion assay, high-salt (100 mM NaCl), triplicates
[27] = ATCC 37097, radial diffusion assay, low-salt (without NaCl), triplicates
[28] = ATCC 49132, radial diffusion assay, high-salt (100 mM NaCl), triplicates
[29] = ATCC 49132, radial diffusion assay, low-salt (without NaCl), triplicates

Compound	MIC, E. faecalis, H-Salt [1, 10] [µM]	MIC, E. faecalis, L-Salt [1, 11] [µM]	MIC, K. oxytoca, H-Salt [2, 12] [µM]	MIC, K. oxytoca, L-Salt [2, 13] [µM]	MIC, E. coli, H-Salt [3, 14] [µM]	MIC, E. coli, L-Salt [3, 15] [µM]	MIC, C. albicans, H-Salt [4, 16] [µM]	MIC, C. albicans, L-Salt [4, 17] [µM]	MIC, P. aeruginosa, H-Salt [5, 18] [µM]	MIC, P. aeruginosa, L-Salt [5, 19] [µM]	MIC, C. kefyr, H-Salt (Candida kefyr ATCC 37095; [20]) [µM]	MIC, C. kefyr, L-Salt (Candida kefyr ATCC 37095; [21]) [µM]	MIC, M. luteus, H-Salt [6, 22] [µM]	MIC, M. luteus, L-Salt [6, 23] [µM]	MIC, S. aureus, H-Salt [7, 24] [µM]	MIC, S. aureus, L-Salt [7, 25] [µM]	MIC, C. tropicalis, H-Salt [8, 26] [µM]	MIC, C. tropicalis, L-Salt [8, 27] [µM]	MIC, P. vulgaris, H-Salt [9, 28] [µM]	MIC, P. vulgaris, L-Salt [9, 29] [µM]	other results
CC(=O)NCCC[C@H](NC(=O)[C@H](CCCNC(=N)N)NC(=O)[C@H](Cc1ccc(O)cc1)NC(=O)[C@H](CC(C)C)NC(=O)[C@@H](N)CCCNC(=N)N)C(=O)NCCC[C@H](NC(=O)[C@H](CCCNC(=N)N)NC(=O)[C@H](Cc1ccc(O)cc1)NC(=O)[C@H](CC(C)C)NC(=O)[C@@H](N)CCCNC(=N)N)C(=O)NCCC[C@H](NC(=O)[C@H](CCCNC(=N)N)NC(=O)[C@H](Cc1ccc(O)cc1)NC(=O)[C@H](CC(C)C)NC(=O)[C@@H](N)CCCNC(=N)N)C(=O)NCCC[C@H](NC(=O)[C@H](CCCNC(=N)N)NC(=O)[C@H](Cc1ccc(O)cc1)NC(=O)[C@H](CC(C)C)NC(=O)[C@@H](N)CCCNC(=N)N)C(N)=O [iO4R] (HELM PEPTIDE1{R.L.Y.R.[Orn]}|PEPTIDE2{[ac]}|PEPTIDE3{R.L.Y.R.[Orn]}|PEPTIDE4{R.L.Y.R.[Orn]}|PEPTIDE5{R.L.Y.R.[Orn].[am]}$PEPTIDE1,PEPTIDE2,5:R3-1:R2|PEPTIDE1,PEPTIDE3,5:R2-5:R3|PEPTIDE3,PEPTIDE4,5:R2-5:R3|PEPTIDE4,PEPTIDE5,5:R2-5:R3$$$V2.0)	> 500	5.4	6.8	1.6	4.4	0.9	1.4	1.3	4.0	4.4	0.8	0.8	2.0	2.1	4.8	6.7	0.8	1.4	23.2	4.7	
CC(C)C[C@H](NC(=O)[C@@H](N)CCCNC(=N)N)C(=O)N[C@@H](Cc1ccc(O)cc1)C(=O)N[C@@H](CCCNC(=N)N)C(=O)N[C@@H](CCCCNC(=O)[C@H](CCCCNC(=O)[C@H](CCCCNC(=O)OCC1c2ccccc2-c2ccccc21)NC(=O)[C@H](CCCNC(=N)N)NC(=O)[C@H](Cc1ccc(O)cc1)NC(=O)[C@H](CC(C)C)NC(=O)[C@@H](N)CCCNC(=N)N)NC(=O)[C@H](CCCNC(=N)N)NC(=O)[C@H](Cc1ccc(O)cc1)NC(=O)[C@H](CC(C)C)NC(=O)[C@@H](N)CCCNC(=N)N)C(N)=O [iK3R] (I: H-RLYRK-NH2 / II: H-RLYRK(Fmoc) / III: H-RLYRK; amide I:5-III:C, II:C-III:5)																					MIC, E. faecalis, H-Salt ([1]; ATCC 29212, 3 h): 0.8 µM; MIC, E. faecalis, L-Salt ([1]; ATCC 29212, 3 h): 0.5 µM; MIC, K. oxytoca, H-Salt ([2]; ATCC 49131, 3 h): 0.7 µM; MIC, K. oxytoca, L-Salt ([2]; ATCC 49131, 3 h): 0.7 µM; MIC, E. coli, H-Salt ([3]; ATCC 25922, 3 h): 0.4 µM; MIC, E. coli, L-Salt ([3]; ATCC 25922, 3 h): 0.6 µM; MIC, C. albicans, H-Salt ([4]; ATCC 37092, 3 h): 0.8 µM; MIC, C. albicans, L-Salt ([4]; ATCC 37092, 3 h): 0.7 µM; MIC, P. aeruginosa, H-Salt ([5]; ATCC 27853, 3 h): 0.8 µM; MIC, P. aeruginosa, L-Salt ([5]; ATCC 27853, 3 h): 0.7 µM; MIC, C. kefyr, H-Salt (Candida kefyr ATCC 37095; ATCC 37095, 3 h): 0.7 µM; MIC, C. kefyr, L-Salt (Candida kefyr ATCC 37095; ATCC 37095, 3 h): 0.8 µM; MIC, M. luteus, H-Salt ([6]; ATCC 49, 3 h): 0.7 µM; MIC, M. luteus, L-Salt ([6]; ATCC 49, 3 h): 0.6 µM; MIC, S. aureus, H-Salt ([7]; 29213, 3 h): 0.7 µM; MIC, S. aureus, L-Salt ([7]; 29213, 3 h): 0.5 µM; MIC, C. tropicalis, H-Salt ([8]; ATCC 37097, 3 h): 1.2 µM; MIC, C. tropicalis, L-Salt ([8]; ATCC 37097, 3 h): 0.8 µM; MIC, P. vulgaris, H-Salt ([9]; ATCC 49132, 3 h): 0.5 µM; MIC, P. vulgaris, L-Salt ([9]; ATCC 49132, 3 h): 0.7 µM
CC(C)C[C@H](NC(=O)[C@@H](N)CCCNC(=N)N)C(=O)N[C@@H](Cc1ccc(O)cc1)C(=O)N[C@@H](CCCNC(=N)N)C(=O)NCCCC[C@H](NC(=O)[C@H](CCCCNC(=O)[C@H](CCCNC(=N)N)NC(=O)[C@H](Cc1ccc(O)cc1)NC(=O)[C@H](CC(C)C)NC(=O)[C@@H](N)CCCNC(=N)N)NC(=O)[C@H](CCCCNC(=O)[C@H](CCCNC(=N)N)NC(=O)[C@H](Cc1ccc(O)cc1)NC(=O)[C@H](CC(C)C)NC(=O)[C@@H](N)CCCNC(=N)N)NC(=O)[C@H](CCCCNC(=O)[C@H](CCCNC(=N)N)NC(=O)[C@H](Cc1ccc(O)cc1)NC(=O)[C@H](CC(C)C)NC(=O)[C@@H](N)CCCNC(=N)N)NC(=O)OCC1c2ccccc2-c2ccccc21)C(N)=O [K4R]	1.5	0.5	1.2	1.3	0.7	0.7	0.8	0.7	0.9	0.8	0.9	0.9	1.0	0.6	0.9	0.8	1.2	1.5	1.0	1.1	
